Data published in patent publication US8106055B2, “Substituted amide compounds” (Gruenenthal GmbH, priority 2007, dated 2012).

biological target: T1, bradykinin 1 receptor (B1R) of the rat (Rattus norvegicus, UniProt P97583); experiment: Functional investigation on the rat bradykinin 1 receptor (B1R), Ca2+ FLIPR assay in CHO K1 rB1R cells; format: cell-based; settings: CHO-K1, B1R antagonism rat; test substance 10 μM; Ca2+ FLIPR, CHO K1 rB1R cells; read-out: B1R Ant. r [10 μM] % Inhibition
T1 construct: expressed in transfected cells; host or cells: CHO K1 cells
T1 sequence (P97583 1-337): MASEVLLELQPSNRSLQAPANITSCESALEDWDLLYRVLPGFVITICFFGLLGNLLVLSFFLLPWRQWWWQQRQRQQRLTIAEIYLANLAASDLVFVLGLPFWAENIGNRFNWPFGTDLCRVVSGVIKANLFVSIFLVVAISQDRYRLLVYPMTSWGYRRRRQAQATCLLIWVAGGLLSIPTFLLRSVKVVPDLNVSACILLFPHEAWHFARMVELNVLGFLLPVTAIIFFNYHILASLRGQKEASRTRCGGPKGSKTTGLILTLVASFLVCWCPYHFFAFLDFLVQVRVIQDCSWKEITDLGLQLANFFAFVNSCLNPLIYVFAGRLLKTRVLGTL
Summary of the method: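 Stably transfected CHO K1 cells loaded with Fluo-4; FLIPR Ca2+ fluorescence peak (ex 488/em 540 nm). Compound added first (agonism vs Lys-Des-Arg9-bradykinin ≥50 nM human, Des-Arg9-bradykinin 10 μM rat), then after 10-20 min agonist at EC80; antagonism as % inhibition, IC50 from concentration series, n=2-3, N≥2.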

| SMILES | inhibition at 10 µM |
| --- | --- |
| CN(C)C(c1cccs1)C1CCC(CNC(=O)COC2CCN(S(=O)(=O)c3ccc(Cl)cc3)C2)CC1 (stereo not drawn) [Example 54, 2-(1-(4-chlorophenylsulfonyl)pyrrolidin-3-yloxy)-N-((4-((dimethylamino)(thiophen-2-yl)methyl)cyclohexyl)methyl)acetamide] | -20% |
| CN(C)C(c1cccc(F)c1)C1CCC(CCNC(=O)COCCN(C)S(=O)(=O)c2c(Cl)cccc2Cl)CC1 (stereo not drawn) [Example 41, 2-(2-(2,6-dichloro-N-methylphenylsulfonamido)ethoxy)-N-(2-(4-((dimethylamino)(3-fluorophenyl)methyl)cyclohexyl)ethyl)acetamide] | 54% |
| COc1ccc(S(=O)(=O)N2Cc3ccccc3CC2COCC(=O)NC2CCC(C(c3ccccc3)N(C)C)CC2)cc1 (stereo not drawn) [Example 38, N-(4-((dimethylamino)(phenyl)methyl)cyclohexyl)-2-((2-(4-methoxyphenylsulfonyl)-1,2,3,4-tetrahydroisoquinolin-3-yl)methoxy)acetamide] | 46% |
| CN(C)C(c1cccs1)C1CCC(CCNC(=O)COCCN(C)S(=O)(=O)c2ccc(F)cc2)CC1 (stereo not drawn) [Example 85, N-(2-(4-((dimethylamino)(thiophen-2-yl)methyl)cyclohexyl)ethyl)-2-(2-(4-fluoro-N-methylphenylsulfonamido)ethoxy)acetamide] | 12% |
| COc1cc(C)c(S(=O)(=O)N(C)CCOCC(=O)NCC2CCC(C(c3cccs3)N(C)C)CC2)c(C)c1 (stereo not drawn) [Example 69, N-((4-((dimethylamino)(thiophen-2-yl)methyl)cyclohexyl)methyl)-2-(2-(4-methoxy-N,2,6-trimethylphenylsulfonamido)ethoxy)acetamide] | 100% |
| CN(C)C(c1cccs1)C1CCC(CNC(=O)COCCN(C)S(=O)(=O)c2ccc(OC(F)(F)F)cc2)CC1 (stereo not drawn) [Example 93, N-((4-((dimethylamino)(thiophen-2-yl)methyl)cyclohexyl)methyl)-2-(2-(N-methyl-4-(trifluoromethoxy)phenylsulfonamido)ethoxy)acetamide] | 6% |
| COc1ccc(S(=O)(=O)N2CCCCC2CCOCC(=O)NCCC2CCC(C(c3cccs3)N(C)C)CC2)cc1 (stereo not drawn) [Example 46, N-(2-(4-((dimethylamino)(thiophen-2-yl)methyl)cyclohexyl)ethyl)-2-(2-(1-(4-methoxyphenylsulfonyl)piperidin-2-yl)ethoxy)acetamide] | 77% |
| CN(C)C(c1cccc(F)c1)C1CCC(CNC(=O)COCCN(C)S(=O)(=O)c2c(Cl)cccc2Cl)CC1 (stereo not drawn) [Example 72, 2-(2-(2,6-dichloro-N-methylphenylsulfonamido)ethoxy)-N-((4-((dimethylamino)(3-fluorophenyl)methyl)cyclohexyl)methyl)acetamide] | 38% |
| COc1ccc(S(=O)(=O)N2CCCC2COCC(=O)NCCC2CCC(C(c3cccs3)N(C)C)CC2)cc1 (stereo not drawn) [Example 77, N-(2-(4-((dimethylamino)(thiophen-2-yl)methyl)cyclohexyl)ethyl)-2-((1-(4-methoxyphenylsulfonyl)pyrrolidin-2-yl)methoxy)acetamide] | 44% |
| COc1cc(C)c(S(=O)(=O)N2CCC(OCC(=O)NCC3CCC(C(c4cccs4)N(C)C)CC3)C2)c(C)c1 (stereo not drawn) [Example 86, N-((4-((dimethylamino)(thiophen-2-yl)methyl)cyclohexyl)methyl)-2-(1-(4-methoxy-2,6-dimethylphenylsulfonyl)pyrrolidin-3-yloxy)acetamide] | 100% |
| CN(C)C(c1cccs1)C1CCC(CNC(=O)COC2CCN(S(=O)(=O)c3ccccc3)C2)CC1 (stereo not drawn) [Example 36, N-((4-((dimethylamino)(thiophen-2-yl)methyl)cyclohexyl)methyl)-2-(1-(phenylsulfonyl)pyrrolidin-3-yloxy)acetamide] | 3% |
| CN(C)C(c1ccccc1)C1CCC(CNC(=O)COCCN(C)S(=O)(=O)c2cccc(C(F)(F)F)c2)CC1 (stereo not drawn) [Example 91, N-((4-((dimethylamino)(phenyl)methyl)cyclohexyl)methyl)-2-(2-(N-methyl-3-(trifluoromethyl)phenylsulfonamido)ethoxy)acetamide] | 34% |
| COc1cc(C)c(S(=O)(=O)N2CCC(OCC(=O)NCCC3CCC(C(c4cccs4)N(C)C)CC3)C2)c(C)c1C (stereo not drawn) [Example 74, N-(2-(4-((dimethylamino)(thiophen-2-yl)methyl)cyclohexyl)ethyl)-2-(1-(4-methoxy-2,3,6-trimethylphenylsulfonyl)pyrrolidin-3-yloxy)acetamide] | 27% |
| CN(C)C(c1cccs1)C1CCC(CNC(=O)COCCN(C)S(=O)(=O)c2ccc(Cl)cc2)CC1 (stereo not drawn) [Example 55, 2-(2-(4-chloro-N-methylphenylsulfonamido)ethoxy)-N-((4-((dimethylamino)(thiophen-2-yl)methyl)cyclohexyl)methyl)acetamide] | 34% |
| COc1ccc(S(=O)(=O)N2CCCCC2COCC(=O)NCC2CCC(C(c3cccs3)N(C)C)CC2)cc1 (stereo not drawn) [Example 45, N-((4-((dimethylamino)(thiophen-2-yl)methyl)cyclohexyl)methyl)-2-((1-(4-methoxyphenylsulfonyl)piperidin-2-yl)methoxy)acetamide] | 65% |
| Cc1cc(C)c(S(=O)(=O)N2CCC(OCC(=O)NCCC3CCC(C(c4cccs4)N(C)C)CC3)C2)c(C)c1 (stereo not drawn) [Example 71, N-(2-(4-((dimethylamino)(thiophen-2-yl)methyl)cyclohexyl)ethyl)-2-(1-(mesitylsulfonyl)pyrrolidin-3-yloxy)acetamide] | 54% |
| COc1cc(C)c(S(=O)(=O)N2CCC(OCC(=O)NC3CCC(C(c4cccs4)N(C)C)CC3)CC2)c(C)c1C (stereo not drawn) [Example 1, N-(4-((dimethylamino)(thiophen-2-yl)methyl)cyclohexyl)-2-(1-(4-methoxy-2,3,6-trimethylphenylsulfonyl)piperidin-4-yloxy)acetamide] | -5% |
| Cc1ccc(S(=O)(=O)N(C)CCOCC(=O)NCC2CCC(C(c3cccs3)N(C)C)CC2)cc1 (stereo not drawn) [Example 4, N-((4-((dimethylamino)(thiophen-2-yl)methyl)cyclohexyl)methyl)-2-(2-(N,4-dimethylphenylsulfonamido)ethoxy)acetamide] | 18% |
| COc1ccc(S(=O)(=O)N2Cc3ccccc3CC2COCC(=O)NC2CCC(C(c3cccs3)N(C)C)CC2)cc1 (stereo not drawn) [Example 47, N-(4-((dimethylamino)(thiophen-2-yl)methyl)cyclohexyl)-2-((2-(4-methoxyphenylsulfonyl)-1,2,3,4-tetrahydroisoquinolin-3-yl)methoxy)acetamide] | 36% |
| CN(C)C(c1ccccc1)C1CCC(NC(=O)COCCN(C)S(=O)(=O)c2c(Cl)cc(Cl)cc2Cl)CC1 (stereo not drawn) [Example 34, N-(4-((dimethylamino)(phenyl)methyl)cyclohexyl)-2-(2-(2,4,6-trichloro-N-methylphenylsulfonamido)ethoxy)acetamide] | 24% |
| CCN(CCOCC(=O)NC1CCC(C(c2cccs2)N(C)C)CC1)S(=O)(=O)c1c(C)cc(OC)c(C)c1C (stereo not drawn) [Example 59, N-(4-((dimethylamino)(thiophen-2-yl)methyl)cyclohexyl)-2-(2-(N-ethyl-4-methoxy-2,3,6-trimethylphenylsulfonamido)ethoxy)acetamide] | 70% |
| COc1cc(C)c(S(=O)(=O)N(C)CCOCC(=O)NCCC2CCC(C(c3cccs3)N(C)C)CC2)c(C)c1 (stereo not drawn) [Example 84, N-(2-(4-((dimethylamino)(thiophen-2-yl)methyl)cyclohexyl)ethyl)-2-(2-(4-methoxy-N,2,6-trimethylphenylsulfonamido)ethoxy)acetamide] | 103% |
| COc1ccc(S(=O)(=O)N(C)CCOCC(=O)NC2CCC(C(c3cccs3)N(C)C)CC2)cc1 (stereo not drawn) [Example 73, N-(4-((dimethylamino)(thiophen-2-yl)methyl)cyclohexyl)-2-(2-(4-methoxy-N-methylphenylsulfonamido)ethoxy)acetamide] | 29% |
| CN(C)C(c1cccs1)C1CCC(CCNC(=O)COCCN(C)S(=O)(=O)c2ccc(OC(F)(F)F)cc2)CC1 (stereo not drawn) [Example 65, N-(2-(4-((dimethylamino)(thiophen-2-yl)methyl)cyclohexyl)ethyl)-2-(2-(N-methyl-4-(trifluoromethoxy)phenylsulfonamido)ethoxy)acetamide] | 18% |
| COc1cc(C)c(S(=O)(=O)N2CCC(CCOCC(=O)NC3CCC(C(c4cccs4)N(C)C)CC3)CC2)c(C)c1C (stereo not drawn) [Example 5, N-(4-((dimethylamino)(thiophen-2-yl)methyl)cyclohexyl)-2-(2-(1-(4-methoxy-2,3,6-trimethylphenylsulfonyl)piperidin-4-yl)ethoxy)acetamide] | -3% |
| COc1cc(C)c(S(=O)(=O)N(C)CCOCC(=O)NCCC2CCC(C(c3cccs3)N(C)C)CC2)c(C)c1C (stereo not drawn) [Example 52, N-(2-(4-((dimethylamino)(thiophen-2-yl)methyl)cyclohexyl)ethyl)-2-(2-(4-methoxy-N,2,3,6-tetramethylphenylsulfonamido)ethoxy)acetamide] | 53% |

same assay, conditions: CHO-K1, read-out: B1R Ant. r [10 μM] % Inhibition

| SMILES | inhibition at 10 µM |
| --- | --- |
| CN(C)C(c1ccccc1)C1CCC(CNC(=O)COC2CCN(S(=O)(=O)c3ccc(Cl)cc3Cl)C2)CC1 (stereo not drawn) [Example 67, 2-(1-(2,4-dichlorophenylsulfonyl)pyrrolidin-3-yloxy)-N-((4-((dimethylamino)(phenyl)methyl)cyclohexyl)methyl)acetamide] | 46% |
